{
  "source": "ChEMBL document CHEMBL3045558",
  "about": "“Synthesis and primary evaluation of quinoxalinone derivatives as potent modulators of multidrug resistance” (Med Chem Res, 2009)",
  "key": {"[1]": {"target": "ATP-dependent translocase ABCB1 (Homo sapiens, UniProt P08183)", "sequence (P08183 whole entry)": "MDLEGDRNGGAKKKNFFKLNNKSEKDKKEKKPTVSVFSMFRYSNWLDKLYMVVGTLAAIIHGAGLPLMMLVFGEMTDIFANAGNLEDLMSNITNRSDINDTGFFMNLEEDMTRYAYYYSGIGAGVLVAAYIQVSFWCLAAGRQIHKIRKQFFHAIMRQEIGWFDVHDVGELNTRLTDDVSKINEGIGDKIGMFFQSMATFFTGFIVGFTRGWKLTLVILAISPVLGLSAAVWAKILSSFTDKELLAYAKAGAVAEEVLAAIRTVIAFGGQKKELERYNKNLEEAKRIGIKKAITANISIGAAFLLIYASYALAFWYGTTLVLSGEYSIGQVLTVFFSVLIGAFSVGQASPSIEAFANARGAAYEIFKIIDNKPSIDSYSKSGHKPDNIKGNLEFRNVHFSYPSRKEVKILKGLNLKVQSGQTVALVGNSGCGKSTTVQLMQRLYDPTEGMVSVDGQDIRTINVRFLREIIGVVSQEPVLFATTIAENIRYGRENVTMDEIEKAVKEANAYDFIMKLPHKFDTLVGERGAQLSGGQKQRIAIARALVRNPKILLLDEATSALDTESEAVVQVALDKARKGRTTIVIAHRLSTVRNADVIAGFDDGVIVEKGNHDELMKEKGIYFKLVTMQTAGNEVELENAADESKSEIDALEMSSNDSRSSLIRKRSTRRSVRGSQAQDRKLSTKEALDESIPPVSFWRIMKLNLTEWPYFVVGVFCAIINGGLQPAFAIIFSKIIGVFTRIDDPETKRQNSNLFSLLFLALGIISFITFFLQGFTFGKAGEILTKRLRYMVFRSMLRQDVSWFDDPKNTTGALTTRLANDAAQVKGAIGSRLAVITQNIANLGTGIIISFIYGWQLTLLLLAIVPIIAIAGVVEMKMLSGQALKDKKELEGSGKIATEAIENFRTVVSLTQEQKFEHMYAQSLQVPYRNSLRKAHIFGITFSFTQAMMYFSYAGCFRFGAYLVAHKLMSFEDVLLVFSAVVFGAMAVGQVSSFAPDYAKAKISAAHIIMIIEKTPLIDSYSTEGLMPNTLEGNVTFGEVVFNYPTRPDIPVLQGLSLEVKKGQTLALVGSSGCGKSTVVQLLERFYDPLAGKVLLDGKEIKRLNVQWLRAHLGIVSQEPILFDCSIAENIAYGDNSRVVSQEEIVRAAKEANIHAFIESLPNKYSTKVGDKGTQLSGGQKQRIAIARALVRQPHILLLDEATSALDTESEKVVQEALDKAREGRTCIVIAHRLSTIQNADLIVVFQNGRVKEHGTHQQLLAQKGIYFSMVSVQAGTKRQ", "experiment": "Inhibition of p-glycoprotein in Homo sapiens (human) K562/A02 cells assessed as reduction of adriamycin IC50 for cytotoxic effect at IC10 treated 12 hr before adriamycin challenge measured after 24 to 72 hr by MTT assay", "assay_type": "cell-based"}, "K562": {"tested_on": "K562", "experiment": "Ratio of compound IC50 to adriamycin IC50 for Homo sapiens (human) K562 cells after 24 to 72 hr by MTT assay", "assay_type": "functional"}, "[2]": {"experiment": "Cytotoxicity against Homo sapiens (human) K562/A02 cells after 24 to 72 hr by MTT assay", "assay_type": "cell-based"}},
  "data": [
    {"smiles": "Cc1ccc(NC(=O)Cn2c(=O)c(C)nc3ccccc32)cc1", "values": [
      {"measurement": "fold change (FC)", "setting": "[1]", "value": 3.55},
      {"measurement": "Ratio IC50", "setting": "K562", "value": 1},
      {"measurement": "IC10", "setting": "[2]", "value": 1630, "unit": "nM"}
    ]},
    {"smiles": "Cc1nc2ccccc2n(CC(=O)Nc2ccccc2)c1=O", "values": [
      {"measurement": "fold change (FC)", "setting": "[1]", "value": 2.45},
      {"measurement": "Ratio IC50", "setting": "K562", "value": 1.07},
      {"measurement": "IC10", "setting": "[2]", "value": 34100, "unit": "nM"}
    ]},
    {"smiles": "COc1ccc(NC(=O)Cn2c(=O)c(C)nc3ccccc32)cc1OC", "values": [
      {"measurement": "fold change (FC)", "setting": "[1]", "value": 3.75},
      {"measurement": "Ratio IC50", "setting": "K562", "value": 1.15},
      {"measurement": "IC10", "setting": "[2]", "value": 1420, "unit": "nM"}
    ]},
    {"smiles": "Cc1ccccc1NC(=O)Cn1c(=O)c(C)nc2ccccc21", "values": [
      {"measurement": "fold change (FC)", "setting": "[1]", "value": 4.01},
      {"measurement": "Ratio IC50", "setting": "K562", "value": 1.15},
      {"measurement": "IC10", "setting": "[2]", "value": 1850, "unit": "nM"}
    ]},
    {"smiles": "Cc1nc2ccccc2n(CC(=O)Nc2ccc(Br)cc2)c1=O", "values": [
      {"measurement": "fold change (FC)", "setting": "[1]", "value": 1.24},
      {"measurement": "Ratio IC50", "setting": "K562", "value": 0.94},
      {"measurement": "IC10", "setting": "[2]", "value": 2700, "unit": "nM"}
    ]},
    {"smiles": "Cc1nc2ccccc2n(CC(=O)Nc2ccc(Cl)c(Cl)c2)c1=O", "values": [
      {"measurement": "fold change (FC)", "setting": "[1]", "value": 1.62},
      {"measurement": "Ratio IC50", "setting": "K562", "value": 1.07},
      {"measurement": "IC10", "setting": "[2]", "value": 140, "unit": "nM"}
    ]},
    {"smiles": "Cc1nc2ccccc2n(CC(=O)Nc2ccc(F)c(Cl)c2)c1=O", "values": [
      {"measurement": "fold change (FC)", "setting": "[1]", "value": 1.83},
      {"measurement": "Ratio IC50", "setting": "K562", "value": 1},
      {"measurement": "IC10", "setting": "[2]", "value": 2910, "unit": "nM"}
    ]},
    {"smiles": "Cc1nc2cc(F)c(F)cc2n(CC(=O)Nc2ccccc2)c1=O", "values": [
      {"measurement": "fold change (FC)", "setting": "[1]", "value": 2.41},
      {"measurement": "Ratio IC50", "setting": "K562", "value": 1},
      {"measurement": "IC10", "setting": "[2]", "value": 1520, "unit": "nM"}
    ]},
    {"smiles": "COc1cc2nc(C)c(=O)n(CC(=O)Nc3ccccc3)c2cc1OC", "values": [
      {"measurement": "fold change (FC)", "setting": "[1]", "value": 4.59},
      {"measurement": "Ratio IC50", "setting": "K562", "value": 1.15},
      {"measurement": "IC10", "setting": "[2]", "value": 2840, "unit": "nM"}
    ]},
    {"smiles": "Cc1nc2ccccc2n(CC(=O)Nc2ccc(F)c(F)c2)c1=O", "values": [
      {"measurement": "fold change (FC)", "setting": "[1]", "value": 5.3},
      {"measurement": "Ratio IC50", "setting": "K562", "value": 1.07},
      {"measurement": "IC10", "setting": "[2]", "value": 2570, "unit": "nM"}
    ]},
    {"smiles": "COC(=O)[C@H](Cc1ccccc1)NC(=O)Cn1c(=O)c(C)nc2cc(F)c(F)cc21", "values": [
      {"measurement": "fold change (FC)", "setting": "[1]", "value": 1.05},
      {"measurement": "Ratio IC50", "setting": "K562", "value": 1.15},
      {"measurement": "IC10", "setting": "[2]", "value": 2410, "unit": "nM"}
    ]},
    {"smiles": "COC(=O)[C@H](Cc1ccccc1)NC(=O)Cn1c(=O)c(C)nc2cc(OC)c(OC)cc21", "values": [
      {"measurement": "fold change (FC)", "setting": "[1]", "value": 1.82},
      {"measurement": "Ratio IC50", "setting": "K562", "value": 1},
      {"measurement": "IC10", "setting": "[2]", "value": 11380, "unit": "nM"}
    ]},
    {"smiles": "COC(=O)[C@H](Cc1ccccc1)NC(=O)Cn1c(=O)c(C)nc2ccccc21", "values": [
      {"measurement": "fold change (FC)", "setting": "[1]", "value": 2.01},
      {"measurement": "Ratio IC50", "setting": "K562", "value": 1.25},
      {"measurement": "IC10", "setting": "[2]", "value": 13190, "unit": "nM"}
    ]},
    {"smiles": "CCOC(=O)CNC(=O)Cn1c(=O)c(C)nc2ccccc21", "values": [
      {"measurement": "fold change (FC)", "setting": "[1]", "value": 2.37},
      {"measurement": "Ratio IC50", "setting": "K562", "value": 1.07},
      {"measurement": "IC10", "setting": "[2]", "value": 16500, "unit": "nM"}
    ]},
    {"smiles": "CCOC(=O)CC[C@H](NC(=O)Cn1c(=O)c(C)nc2ccccc21)C(=O)OCC", "values": [
      {"measurement": "fold change (FC)", "setting": "[1]", "value": 4.13},
      {"measurement": "Ratio IC50", "setting": "K562", "value": 1.15},
      {"measurement": "IC10", "setting": "[2]", "value": 2480, "unit": "nM"}
    ]},
    {"smiles": "COC(=O)[C@@H]1C[C@@H](O)CN1C(=O)Cn1c(=O)c(C)nc2ccccc21", "values": [
      {"measurement": "fold change (FC)", "setting": "[1]", "value": 4.82},
      {"measurement": "Ratio IC50", "setting": "K562", "value": 1.15},
      {"measurement": "IC10", "setting": "[2]", "value": 2890, "unit": "nM"}
    ]},
    {"smiles": "CCOC(=O)Cn1c(=O)c(C)nc2ccccc21", "values": [
      {"measurement": "fold change (FC)", "setting": "[1]", "value": 1.5},
      {"measurement": "Ratio IC50", "setting": "K562", "value": 1},
      {"measurement": "IC10", "setting": "[2]", "value": 4060, "unit": "nM"}
    ]}
  ]
}
